Read-outs that look alike come from different tables or passages of the source.
Legend:
[1] = test system: Plasmodium falciparum chloroquine-resistant strain (FAF6, derived from ITG2 strain); assay: Growth inhibition of chloroquine-resistant malaria parasite (parasite lactate dehydrogenase viability); assay type: cell-based
Description: Compounds IA and IB (also referred to herein as calothrixins A and B respectively) were isolated from Calothrix strains (Schlegel et al, J. Appl, Phycol. 10, 471-479 (1998)), extracts of which were screened for activity against HeLa cells and Plasmodium as described in the Examples.
A chloroquine-resistant strain (FAF6, derived from ITG2 strain (Biggs, B. A., Gooze, L., Wycherley, K., Wollish, W., Southwell, B., Leech, J. H., and Brown, G. V (1991). Proc. Natl. Acad. Sci. USA 88, 9171-9174, 1991) of the malaria parasite. Plasmodium falciparum was used. Parasites were cultured in standard media (Trager, W. and Jensen, J. B. (1976). Science 193 673-675) with modifications (Cranmer, S. L., Magowan, C., Lian, J., Coppel, R. L., and Cooke, B. M. (1997). Trans. Roy. Soc. Trop. Med. Hyg. 91, 363-365). At the start of the assay the parasitaemia was 2% and haematocrit was 2%. Parasites were incubated in the presence of inhibitors in 96-well plates for 48 h.
Parasite-derived lactate dehydrogenase activity at the end of the 48 h period was used as a measure of parasite viability in vitro (Makler, M. T., Ries, J. M., Williams, J. A., Bancroft, J. E., Piper, R. C., Gibbins, B. L., and Hinrichs, D. J. (1993). Am. J. Trop. Med. Hyg. 48, 739-741).
The results are illustrated in FIG. 1.

HeLa cells = assay: HeLa cell cytotoxicity, MTT assay; assay type: cell-based; conditions: cultured HeLa cells, 4 days continuous incubation, ± s.d., listed as IB (Calothrixin B)
Protocol: The compounds of Formula IA and IB were also examined for their efficacy in inhibiting the growth of cultured HeLa cells (FIG. 2). The IC50 values are depicted in Table 2.
Exponentially growing HeLa cells were trysinized, centrifuged and resuspended in fresh medium. (RPMI 1640, 20% FCS, 2 mM glutamine). […] Calothrix cell extracts or the purified active compound were prepared in dimethyl sulphoxide, serially diluted in complete medium, then added (100 μL) in quadruplicate to cell suspensions. Cells were incubated continuously with extracts at 37° C. for 4 days. Cytotoxicity was determined using the MTT [3-(4,5dimethylthiazol-2-yl)-2,5-diphenyl-tetrazolium bromide] assay. MTT (50 μL, 2 mg ML^−1) was aliquotted into all wells of the microtitre plate and incubated at 37° C. for 4 h. Plates were inverted to discard medium and formazan crystals were solubilized in 100 μL DMSO with 25 μL glycine buffer (0.1 M glycine in 0.1 M NaCl, pH 10.5). Plates were agitated for 30 s and absorbances determined immediately at […] using a Titertek Multiskan Plus MKII ELISA plate reader.
The results are illustrated in FIG. 2.

Row | Structure (SMILES) | IC50 ([1]; chloroquine-resistant P. falciparum strain FAF6, 48 h incubation, parasite lactate dehydrogenase activity, ± s.d., listed as IB (Calothrixin B), read-out: IC50) | IC50 (HeLa cells) | IC50 ([1]; Plasmodium falciparum, 48 h)
1 | O=C1c2[nH]c3ccccc3c2C(=O)c2cnc3ccccc3c21 [IB, Calothrixin B] | 83 ± 17 nM | 350 ± 82 nM | 
2 | CCN(CC)CCCC(C)Nc1ccnc2cc(Cl)ccc12 (stereo not drawn) [Chloroquine, reference compound] |  |  | 180 ± 44 nM
